Measurements as given in patent US7989483B2, “4-heteroarylimidazole-2-thione tyrosinase inhibitors and pharmaceutical/cosmetic applications thereof” (Galderma Research & Development, priority 2007, dated 2011).

Target: T1, tyrosinase (Mus musculus, UniProt P11344)
T1 construct: the supernatant obtained constitutes the cell lysate used as tyrosinase source in the enzymatic assay; endogenous in cells; host or cells: B16F1 murine melanoma cells (alpha-MSH stimulated), detergent lysate supernatant
T1 sequence (P11344 19-533): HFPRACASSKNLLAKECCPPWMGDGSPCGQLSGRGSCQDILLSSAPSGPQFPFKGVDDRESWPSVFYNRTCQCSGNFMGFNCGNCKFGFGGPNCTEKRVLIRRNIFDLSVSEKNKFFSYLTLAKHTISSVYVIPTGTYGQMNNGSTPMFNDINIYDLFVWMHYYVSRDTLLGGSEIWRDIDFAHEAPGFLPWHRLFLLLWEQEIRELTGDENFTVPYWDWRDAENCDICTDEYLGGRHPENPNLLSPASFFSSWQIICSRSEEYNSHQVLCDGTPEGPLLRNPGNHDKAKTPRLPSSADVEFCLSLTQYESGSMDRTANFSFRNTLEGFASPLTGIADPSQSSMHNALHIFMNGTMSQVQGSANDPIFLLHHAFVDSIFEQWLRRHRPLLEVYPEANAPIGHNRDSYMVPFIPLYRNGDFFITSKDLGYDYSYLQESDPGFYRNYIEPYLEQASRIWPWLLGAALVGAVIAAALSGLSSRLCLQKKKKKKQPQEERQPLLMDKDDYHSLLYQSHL
Assay: Tyrosinase activity inhibition assay (B16F1 cell lysate, L-tyrosine substrate, MBTH, 520 nm)
Format: biochemical
Details: lysate of B16F1 cells (murine melanoma line), L-DOPA cofactor, 37° C., reading at 520 nm after 6 hours, read-out: Tyrosine hydroxylase/Dopa oxidase IC50
Description: The activity of the inhibitors is measured starting from a lysate of B16F1 cells (murine melanoma line). In the presence of the L-tyrosine substrate, the tyrosinase present in these cells catalyses the hydroxylation of L-tyrosine to give L-DOPA and then the oxidation of the L-DOPA to give dopaquinone. In the presence of MBTH (3-methyl-2-benzothiazolinone hydrazone), the dopaquinone is trapped so as to form a pink complex which absorbs at 520 nm.
The B16F1 cells are cultured in DMEM medium+10% foetal calf serum+10^−9 M α-MSH for 4 days at 37° C. under 7% CO2. They are treated with trypsin, washed with PBS, counted and pelleted. The pellet is taken up at 10^7 cells/ml in lysis buffer (10 mM sodium phosphate, pH 6.8-1% Igepal) and the suspension is treated with ultrasound for 10 seconds. After centrifugation for 30 minutes at 4000 rpm, the supernatant obtained constitutes the cell lysate used as tyrosinase source in the enzymatic assay.
The assays are carried out in duplicate in 384-well plates in a total volume of 50 μl. Each well contains: […]
The plate is incubated at 37° C. and a spectrophotometric reading is carried out at 520 nm after incubating for 6 hours. To avoid any possible absorption of the products, the system uses corrected absorbance (absorbance at time 6 h—absorbance at time zero). […]

| SMILES | IC50 [nM] |
| --- | --- |
| Cc1csc(-c2c[nH]c(=S)[nH]2)c1 [Compound 4, 4-(4-methylthiophen-2-yl)-1,3-dihydro-imidazole-2-thione] | 100 |
| Cc1ccc(-c2c[nH]c(=S)[nH]2)s1 [Compound 3, 4-(5-methylthiophen-2-yl)-1,3-dihydroimidazole-2-thione] | 300 |
